Laboratory results reported in article PMC3509583, “Molecular Mechanisms of Pharmaceutical Drug Binding into Calsequestrin” (International Journal of Molecular Sciences, 2012).
Like-named read-outs stand apart in the source and are kept apart here.

Tests used:
[1] = biological target: T1, human cardiac calsequestrin (hCASQ2) (Homo sapiens, UniProt O14958); parameters: method as in PMID 20713040; details: cited from earlier work; for binding class based on ITC dissociation constants (Kd): hCASQ2, drugs grouped as strong, moderate or poor binders; for Kd: hCASQ2, ITC, previous studies, read-out: experimental dissociation constant (Kd)
T1 sequence (O14958 20-399): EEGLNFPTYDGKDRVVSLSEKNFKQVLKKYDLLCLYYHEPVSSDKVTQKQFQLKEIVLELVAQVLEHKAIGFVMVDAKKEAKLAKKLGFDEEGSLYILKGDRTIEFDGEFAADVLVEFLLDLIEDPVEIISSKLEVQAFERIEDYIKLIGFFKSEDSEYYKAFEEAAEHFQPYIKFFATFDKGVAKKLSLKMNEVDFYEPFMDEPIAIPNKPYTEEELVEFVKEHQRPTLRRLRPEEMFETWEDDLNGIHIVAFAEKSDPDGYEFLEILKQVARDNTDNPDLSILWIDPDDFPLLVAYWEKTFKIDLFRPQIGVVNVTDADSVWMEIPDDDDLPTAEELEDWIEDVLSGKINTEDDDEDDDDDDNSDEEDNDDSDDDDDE

[2] = biological target: T1, human cardiac calsequestrin (hCASQ2); experiment: Isothermal titration calorimetry (ITC) of drug binding to hCASQ2, with or without caffeine; details: hCASQ2, titration in the absence of caffeine (Supplemental Fig. 2); read-out: Dissociation constant (Kd)
Method: We performed ITC assays to check the predicted competition between the natural compounds (CAF, EGC, and EGCG) and tested synthetic drugs.
ITC experiments were conducted using a previous protocol, with slight modifications. The protein and drug concentrations were kept at 50 μM and 2 mM, respectively, while the CAF concentration was allowed to vary between 0 and 5 mM for different drugs. […] Origin software (Origin Lab Corp, Northampton, MA, USA) was used to fit the data to a one-site binding model via non-linear least squares regression.

SR microsomes = system: SR microsomes; parameters: method as in PMID 16141311, PMID 15492117; details: concentration- and time-dependent; cited from earlier work

Structure (SMILES) | binding class based on ITC dissociation constants (Kd) [1] | Kd [1] [µM] | Kd [2] [µM] | total SR microsomal Ca2+ content (SR microsomes)
CN(C)CCC=C1c2ccccc2CCc2ccccc21 [amitriptyline] | moderate | – | – | –
CCOC(=O)C1=C(COCCN)NC(C)=C(C(=O)OC)C1c1ccccc1Cl (stereo not drawn) [amlodipine] | strong | 20.4 | – | –
CN(C)CCCN1c2ccccc2Sc2ccc(Cl)cc21 [chlorpromazine] | poor | – | 102 | –
COc1cccc2c1C(=O)c1c(O)c3c(c(O)c1C2=O)C[C@@](O)(C(C)=O)C[C@@H]3O[C@H]1C[C@H](N)[C@H](O)[C@H](C)O1 [daunomycin] | strong | 20.3 | – | –
COc1ccc([C@@H]2Sc3ccccc3N(CCN(C)C)C(=O)[C@@H]2OC(C)=O)cc1 [diltiazem] | moderate | – | 41 | –
COc1cccc2c1C(=O)c1c(O)c3c(c(O)c1C2=O)C[C@@](O)(C(=O)CO)C[C@@H]3O[C@H]1C[C@H](N)[C@H](O)[C@H](C)O1 [doxorubicin] | strong | 14.4 | – | –
CN[C@@H](C)[C@H](O)c1ccccc1 [ephedrine] | poor | – | – | –
CC(C)NCC(O)c1ccc(O)c(O)c1 (stereo not drawn) [isoproterenol] | poor | – | – | –
COCCc1ccc(OCC(O)CNC(C)C)cc1 (stereo not drawn) [metoprolol] | poor | – | – | –
Clc1ccc(COC(Cn2ccnc2)c2ccc(Cl)cc2Cl)c(Cl)c1 (stereo not drawn) [miconazole] | poor | – | – | –
CNCCC=C1c2ccccc2CCc2ccccc21 [nortriptyline] | moderate | – | – | –
CC(CN1c2ccccc2Sc2ccccc21)N(C)C (stereo not drawn) [promethazine] | moderate | – | – | –
CCCNCC(O)COc1ccccc1C(=O)CCc1ccccc1 (stereo not drawn) [propafenone] | poor | – | – | –
CSc1ccc2c(c1)N(CCC1CCCCN1C)c1ccccc1S2 (stereo not drawn) [thioridazine] | strong | – | 22 | –
CN1CCN(CCCN2c3ccccc3Sc3ccc(C(F)(F)F)cc32)CC1 [trifluoperazine] | strong | 18.2 | 36 | significantly reduce
